Measured values taken from patent US5843941A, “Ras farnesyl transferase inhibitors” (Genentech, Inc., priority 1994, dated 1998).

Key:
Type in all cases: cell-based
[1] = test system: untransformed parental rat-1 fibroblasts; test: Cell growth of untransformed parental rat-1 fibroblasts; details: up to 25 μM; FIG. 7 Panel F
Procedure: (§1) To examine the effects of farnesyltransferase inhibition on cell growth, three cell lines (ras-transformed rat-1, src-transformed rat-1, and parental rat-1 cells) were seeded (see FIG. 7) at low density and allowed to grow for 10 days in the absence or presence of increasing concentrations of BZA-5B (compound 37). See Example 128 for description of cells. On day 0, cells were plated in monolayer culture at 2×10^3 cells per well (24-well plates) in 1 ml DMEM supplemented with 10% fetal calf serum, 100 U/ml penicillin, 100 μg/ml streptomycin, 0.5 mM DTT, 0.025% DMSO, and the indicated concentration of BZA-5B (compound 37). On days 3 and 7, cells were washed and refed with the same medium. At the time indicated in FIG. 7, cells were harvested by trypsinization and counted in a Coulter counter. Panels A, C, E show the growth rate of each cell line in the absence of inhibitor. Panels B, D, F show the inhibition of growth as a function of concentration of BZA-5B at each time point. The "100% values" correspond to the appropriate cell numbers in Panels A, C, E at the indicated time. Each value represents a single incubation. As shown in the panels A, C, and E, all three cell lines grew logarithmically with no added inhibitor. […] The growth of src-transformed (Panel D) and untransformed cells (Panel F) were not affected at concentrations of BZA-5B up to 25 μM.

[2] = test system: ras-transformed rat-1 fibroblasts; test: Cell growth of ras-transformed rat-1 fibroblasts; details: Fibroblast, 240 h, 10 days, FIG. 7 Panel B
Procedure: as §1

[3] = test system: src-transformed rat-1 fibroblasts; test: Cell growth of src-transformed rat-1 fibroblasts; details: up to 25 μM; FIG. 7 Panel D
Procedure: as §1

In the case of `COC(=O)[C@H](CCSC)NC(=O)CN1C(=O)C(N(C)C(=O)[C@@H](N)CS)N=C(c2ccccc2)c2ccccc21` (stereo partly drawn) [BZA-5B], the “growth of untransformed cells” value [1] was “not affected”, the inhibition at 25 µM [2] was ~90% and the “growth of src-transformed cells” value [3] was “not affected”.
